# Read-outs that look alike come from different tables or passages of the source. Square brackets hold non-standard residues; d marks the D form. Peptide text beside a SMILES is read from it. * marks the point of attachment. X1 = CC(C)(O/N=C(\C(=O)N[C@@H]1C(=O)N2C(C(=O)[O-])=C(C[n+]3ccccc3)CS[C@H]12)c1csc(N)n1)C(=O)NCCCCCCN1C(=O)CC(*)C1=O
# Legend:
# [1] = tested on: A. baumannii SC300007 (Oxa23); assay: microbe, parasite or virus in culture; format: cell-based; details: Acinetobacter baumannii, 20 h, combinations: avibactam fixed 4 mg L^−1, clavulanic acid 2 mg L^−1, median (n = 3)
# Method: (§1) The minimum inhibitory concentration (MIC) of the β‐lactam–peptide conjugates was determined by broth microdilution as previously described.^[ [17] ^] Briefly, in cation‐adjusted MHB II medium, a twofold serial dilution of the compounds was prepared in 96‐well round‐bottom polystyrene or polypropylene microtiter plates with each well containing 50 µL. The plates were inoculated with 50 µL bacterial suspension and the final inoculum, in a total volume of 100 µL, contained 5 × 10^5 CFU mL^−1. The microplates were incubated for 20 h at 37 ± 1 °C. The lowest concentration preventing visible bacterial growth was considered the MIC value. For susceptibility testing of combinations of β‐lactamase‐inhibitors with either a β‐lactam antibiotic or a β‐lactam–peptide conjugate, fixed concentrations of the inhibitors according to the EUCAST (European Committee on Antimicrobial Susceptibility Testing) guidelines (clavulanic acid = 2 mg L^−1, avibactam = 4 mg L^−1) were used.
# E. coli ATCC 25 922 (–) = assay: microbe, parasite or virus in culture; format: cell-based; details: Escherichia coli, 20 h; E. coli ATCC 25922 (no β‐lactamase); combinations: avibactam fixed 4 mg L^−1, clavulanic acid 2 mg L^−1; median (n = 3)
# Method: as §1
# [2] = tested on: K. pneumoniae ATCC 700 603 (SHV‐18); assay: microbe, parasite or virus in culture; format: cell-based; details: Klebsiella pneumoniae, 20 h; K. pneumoniae ATCC 700603 (SHV‐18); combinations: avibactam fixed 4 mg L^−1, clavulanic acid 2 mg L^−1; median (n = 3)
# Method: as §1
# B. subtilis DSM 10 = assay: microbe, parasite or virus in culture; format: cell-based
# Method: as §1
# [3] = tested on: K. pneumoniae 0 6841/Nr.45 (Oxa48); assay: microbe, parasite or virus in culture; format: cell-based; details: Klebsiella pneumoniae, 20 h; K. pneumoniae 06841/Nr.45 (Oxa48); combinations: avibactam fixed 4 mg L^−1, clavulanic acid 2 mg L^−1; median (n = 3)
# Method: as §1
# [4] = tested on: K. pneumoniae BL809453 (KPC); assay: microbe, parasite or virus in culture; format: cell-based; details: Klebsiella pneumoniae, 20 h, combinations: avibactam fixed 4 mg L^−1, clavulanic acid 2 mg L^−1, median (n = 3)
# Method: as §1
# [5] = tested on: E. casseliflavus ATCC 700327; assay: microbe, parasite or virus in culture; format: cell-based; details: E. casseliflavus ATCC 700327, median (n = 3)
# Method: as §1
# E. faecalis ATCC 29212 = assay: microbe, parasite or virus in culture; format: cell-based; details: E. faecalis ATCC 29212, median (n = 3)
# Method: as §1
# Scintigraphy in mice = format: in vivo, Swiss mice
# Method: To enable radiolabeling of the β‐lactam–peptide conjugates, their peptide sequence was elongated by an N‐terminal D‐tyrosine. […] The solution was mixed with 5 MBq of iodine‐125 and radiolabeling was performed using the chloramine T method as previously described.^[ [35] ^] After 30 s, the reaction was quenched by the addition of a saturated methionine solution and the radiolabeled compound purified by reversed‐phase preparative radio‐HPLC (1100 series, Agilent Technologies, Santa Clara, CA, USA). Analysis was performed by analytical radio‐HPLC (1100 series, Agilent Technologies, Santa Clara, CA, USA) using a linear gradient from water (+ 0.1% TFA) to acetonitrile (+ 0.1% TFA) over 5 min at a flow rate of 2 mL min^−1.
# All animal studies were approved by the Animal Care and Use committees from Regierungspräsidium Karlsruhe (Karlsruhe, Germany; reference number 35–9185.81/G‐199/21; date of approval: November 23, 2021). To obtain scintigraphic images, 1–3 MBq of the respective ^125I‐radiolabeled β‐lactam–peptide conjugate was intravenously injected into the tail vein of isoflurane anaesthetized female Wistar rats or Swiss mice. Scintigraphic images were taken with a γ‐camera (Biospace Lab, Nesles‐la‐Vallée, France) at 10 min, 1, 2, 3, and 24 h after injection of the compounds.
# PBP2A = target: T1, PBP2A (Bacillus subtilis, UniProt P54488); assay: Gel‐based PBP affinity assay (Bocillin FL competition); format: binding; details: B. subtilis membrane fractions, competition with Bocillin FL penicillin; compared with parent β‐lactam
# T1 construct: endogenous in cells; host or cells: B. subtilis DSM 10, extracted membrane protein fraction
# T1 sequence (P54488 whole entry): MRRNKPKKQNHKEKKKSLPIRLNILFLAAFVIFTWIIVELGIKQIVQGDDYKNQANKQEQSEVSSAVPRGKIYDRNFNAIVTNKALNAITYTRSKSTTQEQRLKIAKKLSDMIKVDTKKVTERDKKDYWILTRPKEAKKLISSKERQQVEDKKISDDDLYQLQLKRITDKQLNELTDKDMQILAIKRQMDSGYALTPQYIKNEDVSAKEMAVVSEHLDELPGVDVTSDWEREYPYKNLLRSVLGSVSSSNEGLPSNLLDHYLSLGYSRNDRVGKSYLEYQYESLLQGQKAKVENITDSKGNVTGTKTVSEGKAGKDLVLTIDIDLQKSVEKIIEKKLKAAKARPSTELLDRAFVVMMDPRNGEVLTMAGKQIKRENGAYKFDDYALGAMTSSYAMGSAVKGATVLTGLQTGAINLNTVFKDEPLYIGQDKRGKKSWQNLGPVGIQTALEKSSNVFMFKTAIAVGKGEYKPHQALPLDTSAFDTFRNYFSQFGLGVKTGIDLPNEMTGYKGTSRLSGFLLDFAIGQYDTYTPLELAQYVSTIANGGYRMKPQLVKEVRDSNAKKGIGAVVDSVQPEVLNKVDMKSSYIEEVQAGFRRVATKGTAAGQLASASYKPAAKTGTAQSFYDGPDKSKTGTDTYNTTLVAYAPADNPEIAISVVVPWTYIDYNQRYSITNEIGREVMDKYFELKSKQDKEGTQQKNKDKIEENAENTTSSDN
# Method: B. subtilis DSM 10 and E. faecalis ATCC 51 299 (equal to DSM 12 956) membrane protein fractions were extracted according to the protocol of Dean et al. with minor modifications.^[ [34] ^] From a growing overnight bacterial culture, 3 L of LB (Luria‐Bertani) medium or TSB (tryptic soy broth) were inoculated with B. subtilis DSM 10 and E. faecalis ATCC 51 299, respectively, to obtain an OD600 = 0.3. The cultures were grown to an OD600 = 0.6–0.8 while shaking at 37 °C and cells were harvested by centrifugation at 4000 g for 30 min at 4 °C. The resulting pellet was washed twice with pre‐cooled PBS and resuspended in 30 mL of ice‐cooled PBS. The suspension was sonicated on ice (10 cycles of 30 s at 50% power for B. subtilis; 12 cycles of 30 s at 80% power for E. faecalis; 2 min intervals between cycles) using an Omni Ruptor 4000 ultrasonic homogenizer (Omni International, Kennesaw, GA, USA). Afterwards, the suspension was centrifuged at 7000 g for 10 min at 4 °C. The clear supernatant was transferred into a 50 mL polypropylene tube and centrifuged in a Beckman Coulter centrifuge equipped with a JA‐20 fixed‐angle rotor (Beckman Coulter, Krefeld, Germany) at 50 000 g for 1 h at 4 °C. The resulting pellet was washed with ice‐cold PBS and centrifuged a second time. The pellet was resuspended in 2 mL PBS and aliquots were stored at −80 °C. The protein content was determined using Bradford reagent (VWR International, Darmstadt, Germany) and Pierce BCA (bicinchoninic acid) protein assay kits (Thermo Fisher Scientific, Waltham, MA, USA) for membrane fractions of B. subtilis and E. faecalis, respectively.
# Each dilution was combined with B. subtilis (30 µg) or E. faecalis (15 µg) extracted membrane fractions. As reference samples, membrane fractions incubated with only PBS were prepared. Reaction mixtures were incubated for 20 min at 37 °C while shaking at 400 rpm. Next, Bocillin FL penicillin (Thermo Fisher Scientific, Waltham, MA, USA) was added to obtain a final concentration of 20 µM in the mixture. Samples were incubated for 30 min at 37 °C while shaking at 400 rpm. To denature the samples, 4× Laemmli sample buffer (Bio‐Rad Laboratories, Feldkirchen, Germany) was added, and the samples incubated for 10 min at 70 °C. Afterwards, the samples were centrifuged for 5 min at 13 000 rpm. Samples were separated by SDS‐PAGE using a 10% Tris‐glycine gel for 100 min at 180 V. The bands were visualized using a Typhoon FLA 9500 imager (GE Healthcare, Chicago, IL, USA) with excitation at 473 nm. The gel images were analyzed using ImageJ software. Brightness and contrast were adjusted to improve the signal‐to‐noise ratio and the background signal was subtracted over the whole image. Next, integrated density values of the gel bands were measured and Bocillin FL penicillin labeling of each PBP in antibiotic‐treated samples were set in proportion to the reference sample. IC50 values were calculated with GraphPad Prism software (version 8.0.1) using inhibitor versus normalized response variable slope and least‐squares fit. […] The mean was calculated using the IC50 values of at least two independent assays for each antibiotic.
# [6] = Bacillus subtilis, DSM10, B. subtilis DSM 10, median (n = 3), read-out: MIC
# [7] = Swiss mice, i.v., ^125I‐labelled, scintigraphy
structure (smiles),measurement,setting,value
"CC1(C)S[C@@H]2[C@H](NC(=O)[C@H](N)c3ccc(O)cc3)C(=O)N2[C@H]1C(=O)O [AMO, amoxicillin]",MIC,[1],> 64 µg/mL
same,MIC,E. coli ATCC 25 922 (–),6 µg/mL
same,MIC,[2],> 64 µg/mL
same,MIC,B. subtilis DSM 10; [6],0.1 µg/mL
same,MIC,[3],> 64 µg/mL
same,MIC,[4],> 64 µg/mL
"NC(=O)[C@@H]1CC[C@@H]2CN1C(=O)N2OS(=O)(=O)O [AVI, avibactam]",MIC,[1],> 64 µg/mL
same,MIC,E. coli ATCC 25 922 (–),16 µg/mL
same,MIC,[2],> 64 µg/mL
same,MIC,[3],> 64 µg/mL
same,MIC,[4],> 64 µg/mL
"C[C@H]1[C@H](NC(=O)/C(=N\OC(C)(C)C(=O)O)c2csc(N)n2)C(=O)N1S(=O)(=O)O [AZT, aztreonam]",MIC,[1],64 µg/mL
same,MIC,E. coli ATCC 25 922 (–),0.06 µg/mL
same,MIC,"B. subtilis DSM 10; Bacillus subtilis, DSM10",512 µg/mL
"NC(=O)CCCCCN1C(=O)C=CC1=O [BB linker, 6‐maleinimidohexanamide linker]",MIC,[5],> 64 µg/mL
same,MIC,E. faecalis ATCC 29212,> 64 µg/mL
same,MIC,"B. subtilis DSM 10; B. subtilis DSM 10, median (n = 3)",> 64 µg/mL
"O=C(O)[C@H]1/C(=C/CO)O[C@@H]2CC(=O)N21 [CLV, clavulanic acid]",MIC,[1],> 64 µg/mL
same,MIC,E. coli ATCC 25 922 (–),32 µg/mL
same,MIC,[2],64 µg/mL
same,MIC,[3],> 64 µg/mL
same,MIC,[4],> 64 µg/mL
CC(C)(O/N=C(\C(=O)N[C@@H]1C(=O)N2C(C(=O)[O-])=C(C[n+]3ccccc3)CS[C@H]12)c1csc(N)n1)C(=O)NCCCCCCN1C(=O)CC(SC[C@H](NC(=O)[C@H](CCCCN)NC(=O)[C@H](CCCCN)NC(=O)[C@H](CCCCN)NC(=O)[C@H](CCCCN)NC(=O)[C@H](CCCCN)NC(=O)[C@@H](N)CCCCN)C(N)=O)C1=O (stereo partly shown) [CTZ-K6] (H-KKKKKKC(X1)-NH2; N-terminus assumed),elimination route / biodistribution,"Scintigraphy in mice; mouse, in vivo, iv",renal elimination
same,MIC,"B. subtilis DSM 10; DSM 10, 20 h",0.02 µg/mL
CC(C)(O/N=C(\C(=O)N[C@@H]1C(=O)N2C(C(=O)[O-])=C(C[n+]3ccccc3)CS[C@H]12)c1csc(N)n1)C(=O)NCCCCCCN1C(=O)CC(SC[C@H](NC(=O)[C@H](CCCCN)NC(=O)[C@H](CCCCN)NC(=O)[C@H](CCCCN)NC(=O)[C@H](CCCNC(=N)N)NC(=O)[C@H](CCCNC(=N)N)NC(=O)[C@@H](N)CCCNC(=N)N)C(N)=O)C1=O (stereo partly shown) [CTZ-R3K3] (H-RRRKKKC(X1)-NH2; N-terminus assumed),MIC,"B. subtilis DSM 10; DSM 10, 20 h",0.008 µg/mL
CC(C)(O/N=C(\C(=O)N[C@@H]1C(=O)N2C(C(=O)[O-])=C(C[n+]3ccccc3)CS[C@H]12)c1csc(N)n1)C(=O)NCCCCCCN1C(=O)CC(SC[C@H](NC(=O)[C@H](CCCNC(=N)N)NC(=O)[C@H](CCCNC(=N)N)NC(=O)[C@@H](N)CCCNC(=N)N)C(N)=O)C1=O (stereo partly shown) [CTZ-R3],MIC,"B. subtilis DSM 10; DSM 10, 20 h",0.06 µg/mL
CC(C)(O/N=C(\C(=O)N[C@@H]1C(=O)N2C(C(=O)[O-])=C(C[n+]3ccccc3)CS[C@H]12)c1csc(N)n1)C(=O)NCCCCCCN1C(=O)CC(SC[C@H](NC(=O)[C@H](CCCCN)NC(=O)[C@H](CCCCN)NC(=O)[C@H](CCCCN)NC(=O)[C@H](CCCCN)NC(=O)[C@H](CCCCN)NC(=O)[C@H](CCCCN)NC(=O)[C@H](N)Cc2ccc(O)cc2)C(N)=O)C1=O (stereo partly shown) [CTZ-yK6] (H-[dY]KKKKKKC(X1)-NH2; N-terminus assumed),elimination route / biodistribution,Scintigraphy in mice; [7],eliminated by the kidneys
CC(C)(O/N=C(\C(=O)N[C@@H]1C(=O)N2C(C(=O)[O-])=C(C[n+]3ccccc3)CS[C@H]12)c1csc(N)n1)C(=O)NCCCCCCN1C(=O)CC(SC[C@H](NC(=O)[C@H](CCCNC(=N)N)NC(=O)[C@H](CCCNC(=N)N)NC(=O)[C@H](CCCNC(=N)N)NC(=O)[C@H](CCCNC(=N)N)NC(=O)[C@H](CCCNC(=N)N)NC(=O)[C@H](CCCNC(=N)N)NC(=O)[C@H](N)Cc2ccc(O)cc2)C(N)=O)C1=O (stereo partly shown) [CTZ-yR6] (H-[dY]RRRRRRC(X1)-NH2; N-terminus assumed),elimination route / biodistribution,Scintigraphy in mice; [7],mainly accumulated in the liver
CC(C)(O/N=C(\C(=O)N[C@@H]1C(=O)N2C(C(=O)O)=C(C[n+]3ccccc3)CS[C@H]12)c1csc(N)n1)C(=O)NCCCCCCN1C(=O)C=CC1=O [CTZ–BB linker],MIC,"[5]; Enterococcus casseliflavus, ATCC700327, read-out: MIC",> 64 µg/mL
same,MIC,"E. faecalis ATCC 29212; Enterococcus faecalis, ATCC29212, read-out: MIC",1 µg/mL
same,MIC,B. subtilis DSM 10; [6],24 µg/mL
"C[C@@H](O)[C@H]1C(=O)N2C(C(=O)O)=C(S[C@@H]3CN[C@H](C(=O)Nc4cccc(C(=O)O)c4)C3)[C@H](C)[C@H]12 [ERT, ertapenem, reference compound]",MIC,B. subtilis DSM 10; [6],0.5 µg/mL
C[C@@H](O)[C@H]1C(=O)N2C(C(=O)O)=C(S[C@H]3C[C@@H](C(=O)Nc4cccc(C(=O)O)c4)N(C(=O)C4CCC(CN5C(=O)CC(SC[C@H](NC(=O)[C@H](CCCNC(=N)N)NC(=O)[C@H](CCCNC(=N)N)NC(=O)[C@H](CCCNC(=N)N)NC(=O)[C@H](CCCNC(=N)N)NC(=O)[C@H](CCCNC(=N)N)NC(=O)[C@@H](N)CCCNC(=N)N)C(N)=O)C5=O)CC4)C3)[C@H](C)[C@H]12 (stereo partly shown) [ERT-R6C],affinity to PBP2A,PBP2A,higher affinity
same,MIC,"B. subtilis DSM 10; DSM 10, 20 h",< 0.02 µg/mL
